According to patent publication US7862811B2, “Protease inhibition for prevention or treatment of heart failure” (Regents of the University of Colorado, priority 2004, dated 2011):
Square brackets hold non-standard residues; d marks the D form. Peptide text beside a SMILES is read from it. * marks the point of attachment. Nle = CCCC[C@H](N)C(=O)O; Cbz = O=C(OCc1ccccc1)*

How the values were obtained:
MMP = settings: acute pig model, orally-active; cited from earlier work
[1] = system: RV contractile dysfunction from acute RV pressure overload
Experimental: Pigs were subjected to RV pressure overload by constriction of the main pulmonary artery for 90 min (mean PASP 63 mmHg), followed by 30 min recovery.
Animal care: Domestic farm pigs (25-40 kg) are sedated with IM injection of ketamine HCl, followed by IV administration of fentanyl or propofol and α-chloralose. In most exemplary protocols, experiments are performed under deep general anesthesia using α-chloralose. Following anesthetic induction, pigs are intubated via tracheotomy and ventilated using a pressure-cycled ventilator. Mechanical respiration is adjusted to maintain physiologic values of arterial pH, pO2, and pCO2. All experiments are non-survival: at the conclusion of each experiment, supplemental α-chloralose is given prior to inducing ventricular fibrillation (KCl 10%, 25 cc infused IV).
Instrumentation and Hemodynamic Measurements. The experimental preparation is similar to that previously described (51). After exposure via median sternotomy, the heart is instrumented as illustrated in Appendix A.
For calpain inhibitor experiments, the proximal portion of the right coronary artery is dissected free, fitted with a transit-time ultrasonic flow probe, and cannulated with a 26 g polyethylene catheter as described (52). Digitized hemodynamic data are analyzed as previously described (53) and in Appendix A.
The purpose of this experiment is to determine whether calpain activation is mechanistically related to the development of RV dysfunction from pressure overload. Open-chest pigs will be instrumented as described. A 26 g polyethylene catheter will be inserted into the right coronary artery. […] The infusion will be begun 30 min prior to beginning pulmonary artery constriction and continued throughout the experiment. Biopsies of the RV myocardium will be obtained, followed by baseline hemodynamic measurements. Pigs will then be subjected to RV pressure overload by constriction of the main pulmonary artery for 90 min. Hemodynamic measurements will be repeated 30 min after relief of pressure overload, and a second set of RV biopsies obtained. […]

[2] = system: m-calpain from porcine kidney; settings: cited from earlier work
cultured rat lenses = settings: calcium ionophore A23187; cited from earlier work
Molt-4 cells = settings: cited from earlier work
isolated rat hearts [3] = settings: global ischemia; cited from earlier work
isolated rat hearts [4] = settings: elevated LV end-diastolic pressure without ischemia; cited from earlier work

SMILES: NC(=O)C1=C(O)C[C@@H]2C[C@@H]3Cc4cccc(O)c4C(=O)C3=C(O)[C@]2(O)C1=O [COL-3]
- MMP-mediated lung injury (MMP): prevent

SMILES: CC(C)[C@H](NC(=O)OCc1ccccc1)C(=O)N[C@H](C=O)Cc1ccccc1 [MDL-28170, carbobezoxy-valinyl-phenylalaninal] (Cbz-Val-Phe-aldehyde)
- attenuation of RV dysfunction resulting from acute RV pressure overload (RVPO) ([1]; 90 min RVPO, 30 min recovery, versus vehicle): more than 50%
- independent hemodynamic effects ([1]; pig, in vivo): no independent hemodynamic effects
- preload-adjusted external work of the RV free wall ([1]; thirty min after release of pulmonary artery constriction, n=7, p<0.05 vs vehicle): 69 % of baseline

SMILES: CC(C)C[C@@H](C=O)NC(=O)[C@@H](NS(=O)(=O)c1ccc(F)cc1)C(C)C [SJA6017, N-(4-fluorophenylsulfonyl)-L-valyl-L-leucinal]
- binding to the active site of m-calpain ([2]; casein zymography): reversibly bound
- inhibition of purified m-calpain ([2]; in vitro): strong inhibition
- nuclear opacity and proteolysis of crystallins and alpha-spectrin (cultured rat lenses): reduced
- cell permeability (Molt-4 cells): cell-permeable

SMILES: CCCC[C@@H](C=O)NC(=O)[C@H](CC(C)C)NC(=O)[C@H](CC(C)C)NC(C)=O [calpain inhibitor-1] (Ac-Leu-Leu-[Nle]-aldehyde)
- cytoskeletal degradation and myocardial stunning (isolated rat hearts [3]): attenuates

SMILES: CCCC[C@@H](C=O)NC(=O)[C@H](CC(C)C)NC(=O)OCc1ccccc1 [calpeptin]
- TnI degradation and stunning (isolated rat hearts [4]): prevented
